From US20070037872A1, “Inducing peripheral blood vesel vasodilation” (Mars, Incorporated, priority 2005, published 2007)

Test system: peripheral microvascular endothelial function
Experiment: PAT with reactive hyperemia after L-NMMA infusion followed by cocoa beverage
Assay type: in vivo, human
Protocol: Peripheral arterial tonometry (PAT) measurements were taken of three volunteers according to the following study. This is a non-invasive technique for examining peripheral microvascular endothelial function. Microvascular endothelial function is assessed by the direct measurement of changes in digital (finger) pulse volume following reactive hyperemia.
On study days, the subjects reported in a fasted state between 7:30 and 9:00 a.m. Body weight, resting heart rate, and blood pressure were all re-measured. […] Subjects then lied down on their backs to acclimatize to ambient conditions. After 30 minutes, a non-invasive, sterile, single-use finger probe was fitted to a finger and a baseline PAT reading was taken and recorded for 10 minutes. The subjects were then subjected to a reactive hyperemia procedure (“RH”) which consisted of a period of blood flow occlusion to the measurement arm using an upper arm blood pressure cuff, pressurized to achieve a supra-systolic level (equivalent to about 60 mm mercury above systolic blood pressure) for 5 minutes. Then the cuff was released and the data recorded for another five minutes. Following this first reading, subjects drank 3 bottles of Cocoa Drink A (total 483 mg). Over the next six hours, the PAT response was monitored at two, four and six hours.
The infusion of L-NMMA occurred over 30 minutes (1mg/kg/min for the first 3 minutes and then 0.2 mg/kg/min for the next 27 minutes). Following infusion of the L-NMMA, 3 bottles of the beverage were fed (483 mg) per subject. Readings were done for baseline, after infusion of L-NMMA and after consumption of cocoa.
Referring to Table 1, RH indicates PAT value following a reactive hyperemia procedure; “baseline” refers to baseline reading prior to occlusion period.
The data supports an NO-independent mechanism of action of the compounds described herein. […] This indicates the blood flow was affected via an NO-independent mechanism. Peripheral blood flow/vasodilation is a function of both NO and NO-independent vasodilators. The endothelium derived NO is one of the most important mediators of vascular tone; however, NO is not the only compound regulating vascular tone. As such, being able to operate via NO-independent mechanisms means that the compound of the invention can exert important vasodilatory effects on the microvasculature which are independent of an intact endothelium. If the endothelium is compromised in any way and simply cannot produce enough NO, the fact that the compounds of the invention act in an endothelium independent fashion offers greater therapeutic benefits, which was previously unexpected.

[1] = Subject #1, Day 11, after 30 min intravenous infusion of L-NMMA
[2] = Subject #5, Day 10, after 30 min intravenous infusion of L-NMMA
[3] = Subject #6, Day 11, after 30 min intravenous infusion of L-NMMA

SMILES: CNC(=N)NCCC[C@H](N)C(=O)O [LNMMA]
- Baseline (baseline PAT reading prior to occlusion period) [1]: 616
- RH (PAT value following a reactive hyperemia procedure) [1]: 1.61
- Baseline (baseline PAT reading prior to occlusion period) [2]: 689
- RH (PAT value following a reactive hyperemia procedure) [2]: 1.42
- Baseline (baseline PAT reading prior to occlusion period) [3]: 597
- RH (PAT value following a reactive hyperemia procedure) [3]: 1.75
- change in the RH value (all three subjects, after L-NMMA infusion): dramatic reduction
